Source: patent US20260262643A1, “HERBICIDAL BENZOXAZINES” (FMC CORPORATION, priority 2022, published 2026)

Columns and labels:
barnyardgrass [1] = experiment: Test C preemergence; format: in vivo, Echinochloa crusgalli; settings: preemergence, 0 to 100 scale (0 no effect, 100 complete control)
Procedure, shortened: (§1)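 Test material, in non-phytotoxic solvent with surfactant, was sprayed on the soil directly after seeding (preemergence) or on young plants of 2–10 cm with one to two leaves (postemergence). Greenhouse, 10 days; 0–100 visual control scale.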

blackgrass [2] = experiment: Test C preemergence; format: in vivo, Alopecurus myosuroides; settings: preemergence, 0 to 100 scale (0 no effect, 100 complete control)
Procedure, shortened: as §1

corn [3] = experiment: Test C preemergence; format: in vivo, Zea mays; settings: preemergence, 0 to 100 scale (0 no effect, 100 complete control)
Procedure, shortened: as §1

green foxtail [4] = experiment: Test C preemergence; format: in vivo, Setaria viridis; settings: preemergence, 0 to 100 scale (0 no effect, 100 complete control)
Procedure, shortened: as §1

kochia [5] = experiment: Test C preemergence; format: in vivo, Bassia scoparia; settings: preemergence, 0 to 100 scale (0 no effect, 100 complete control)
Procedure, shortened: as §1

oat, wild [6] = experiment: Test C preemergence; format: in vivo, Avena fatua; settings: preemergence, 0 to 100 scale (0 no effect, 100 complete control)
From the text: (§2) Seeds of plant species selected from barnyardgrass (Echinochloa crusgalli), blackgrass (Alopecurus myosuroides), corn (Zea mays), foxtail, giant (giant foxtail, Setaria faberi), green foxtail (Setaria viridis), goosegrass (Eleusine indica), kochia (Bassia scoparia), oat, wild (wild oat, Avena fatua), pigweed, palmer (palmer amaranth, palmer pigweed, Amaranthus palmeri), Pigweed, Redroot (redroot pigweed, Amaranthus retroflexus), ragweed (common ragweed, Ambrosia artemisiifolia), ryegrass, Italian ([…] ryegrass, Lolium multiflorum), soybean (Glycine max), and wheat (Triticum aestivum) were planted into a blend of loam soil and sand and treated preemergence with a directed soil spray using test chemicals formulated in a non-phytotoxic solvent mixture which included a surfactant. At the same time, plants selected from these crops and weed species and also galium (catchweed bedstraw, Galium aparine) and horseweed (Erigeron canadensis) were planted in pots containing the same blend of loam soil and sand and treated with postemergence applications of test chemicals formulated in the same manner. Plants ranged in height from 2 to 10 cm and were in the one- to two-leaf stage for the postemergence treatment. Treated plants and untreated controls were maintained in a greenhouse for 10 days, after which time all treated plants were compared to untreated controls and visually evaluated for injury. Plant response ratings, summarized in Table C, are based on a 0 to 100 scale where 0 is no effect and 100 is complete control. A dash (-) response means no test result.

pigweed, palmer [7] = experiment: Test C preemergence; format: in vivo, Amaranthus palmeri; settings: preemergence, 0 to 100 scale (0 no effect, 100 complete control)
Procedure, shortened: as §1

ragweed [8] = experiment: Test C preemergence; format: in vivo, Ambrosia artemisiifolia; settings: preemergence, 0 to 100 scale (0 no effect, 100 complete control)
Procedure, shortened: as §1

ryegrass, Italian [9] = experiment: Test C preemergence; format: in vivo, Lolium multiflorum; settings: preemergence, 0 to 100 scale (0 no effect, 100 complete control)
Procedure, shortened: as §1

soybean [10] = experiment: Test C preemergence; format: in vivo, Glycine max; settings: preemergence, 0 to 100 scale (0 no effect, 100 complete control)
From the text: as §2

wheat [11] = experiment: Test C preemergence; format: in vivo, Triticum aestivum; settings: preemergence, 0 to 100 scale (0 no effect, 100 complete control)
From the text: as §2

barnyardgrass [12] = experiment: Test C postemergence; format: in vivo, Echinochloa crusgalli; settings: 10 days
Procedure, shortened: as §1

blackgrass [13] = experiment: Test C postemergence; format: in vivo, Alopecurus myosuroides; settings: 10 days
Procedure, shortened: as §1

corn [14] = experiment: Test C postemergence; format: in vivo, Zea mays; settings: 10 days
Procedure, shortened: as §1

green foxtail [15] = experiment: Test C postemergence; format: in vivo, Setaria viridis; settings: 10 days
Procedure, shortened: as §1

kochia [16] = experiment: Test C postemergence; format: in vivo, Bassia scoparia; settings: 10 days
Procedure, shortened: as §1

oat, wild [17] = experiment: Test C postemergence; format: in vivo, Avena fatua; settings: 10 days
From the text: as §2

pigweed, palmer [18] = experiment: Test C postemergence; format: in vivo, Amaranthus palmeri; settings: 10 days
Procedure, shortened: as §1

ragweed [19] = experiment: Test C postemergence; format: in vivo, Ambrosia artemisiifolia; settings: 10 days
Procedure, shortened: as §1

ryegrass, Italian [20] = experiment: Test C postemergence; format: in vivo, Lolium multiflorum; settings: 10 days
Procedure, shortened: as §1

soybean [21] = experiment: Test C postemergence; format: in vivo, Glycine max; settings: 10 days
From the text: as §2

wheat [22] = experiment: Test C postemergence; format: in vivo, Triticum aestivum; settings: 10 days
From the text: as §2

galium = experiment: Test C postemergence; format: in vivo, Galium aparine; settings: 10 days
Procedure, shortened: as §1

horseweed = experiment: Test C postemergence; format: in vivo, Erigeron canadensis; settings: 10 days
Procedure, shortened: as §1

[23] = 500 g ai/ha, postemergence, 0 to 100 scale (0 no effect, 100 complete control)
[24] = Postemergence, 125 g ai/ha, 0 to 100 scale (0 no effect, 100 complete control)
[25] = 125 g ai/ha, postemergence, 0 to 100 scale, 0 no effect, 100 complete control

CC(C)c1ncn(-c2cc(C(=O)N3C[C@H](C)Oc4c(Cl)cccc43)cnn2)n1 [Compound 305]
Barnyardgrass plant response rating (barnyardgrass [1]; 500 g ai/ha): 100
Barnyardgrass plant response rating (barnyardgrass [1]; Test C, 125 g ai/ha): 70
Blackgrass plant response rating (blackgrass [2]; 500 g ai/ha): 90
Blackgrass plant response rating (blackgrass [2]; Test C, 125 g ai/ha): 50
Corn plant response rating (corn [3]; 500 g ai/ha): 30
Corn plant response rating (corn [3]; Test C, 125 g ai/ha): 0
Foxtail, Green plant response rating (green foxtail [4]; 500 g ai/ha): 100
Foxtail, Green plant response rating (green foxtail [4]; Test C, 125 g ai/ha): 100
Kochia plant response rating (kochia [5]; 500 g ai/ha): 100
Kochia plant response rating (kochia [5]; Test C, 125 g ai/ha): 80
Oat, Wild plant response rating (oat, wild [6]; 500 g ai/ha): 80
Oat, Wild plant response rating (oat, wild [6]; Test C, 125 g ai/ha): 20
Pigweed, Palmer plant response rating (pigweed, palmer [7]; 500 g ai/ha): 100
Pigweed, Palmer plant response rating (pigweed, palmer [7]; Test C, 125 g ai/ha): 80
Ragweed plant response rating (ragweed [8]; 500 g ai/ha): 90
Ragweed plant response rating (ragweed [8]; Test C, 125 g ai/ha): 70
Ryegrass, Italian plant response rating (ryegrass, Italian [9]; 500 g ai/ha): 90
Ryegrass, Italian plant response rating (ryegrass, Italian [9]; Test C, 125 g ai/ha): 60
Soybean plant response rating (soybean [10]; 500 g ai/ha): 90
Soybean plant response rating (soybean [10]; Test C, 125 g ai/ha): 0
Wheat plant response rating (wheat [11]; 500 g ai/ha): 70
Wheat plant response rating (wheat [11]; Test C, 125 g ai/ha): 0
Plant response rating, Barnyardgrass (barnyardgrass [12]; [23]): 90
Plant response rating, Barnyardgrass (barnyardgrass [12]; [24]): 30
Plant response rating, Blackgrass (blackgrass [13]; [23]): 90
Plant response rating, Blackgrass (blackgrass [13]; [24]): 40
Plant response rating, Corn (corn [14]; [23]): 90
Plant response rating, Corn (corn [14]; [24]): 10
Plant response rating, Foxtail, Green (green foxtail [15]; [23]): 90
Plant response rating, Foxtail, Green (green foxtail [15]; [24]): 50
Plant response rating, Kochia (kochia [16]; [23]): 80
Plant response rating, Kochia (kochia [16]; [24]): 50
Plant response rating, Oat, Wild (oat, wild [17]; [23]): 60
Plant response rating, Oat, Wild (oat, wild [17]; [24]): 30
Plant response rating, Pigweed, Palmer (pigweed, palmer [18]; [23]): 80
Plant response rating, Pigweed, Palmer (pigweed, palmer [18]; [24]): 30
Plant response rating, Ragweed (ragweed [19]; [23]): 80
Plant response rating, Ragweed (ragweed [19]; [24]): 70
Plant response rating, Ryegrass, Italian (ryegrass, Italian [20]; [23]): 60
Plant response rating, Ryegrass, Italian (ryegrass, Italian [20]; [24]): 30
Plant response rating, Soybean (soybean [21]; [23]): 100
Plant response rating, Soybean (soybean [21]; [24]): 100
Plant response rating, Wheat (wheat [22]; [23]): 90
Plant response rating, Wheat (wheat [22]; [24]): 40
Plant response rating, Galium (galium; [23]): 100
Plant response rating, Galium (galium; [24]): 100
Plant response rating, Horseweed (horseweed; [23]): 100
Plant response rating, Horseweed (horseweed; [24]): 30

COC(=O)N(C)c1ncn(-c2cccc(C(=O)N3C[C@H](C)Oc4c(C)cccc43)c2)n1 [30 0]
Barnyardgrass plant response rating (barnyardgrass [1]; 500 g ai/ha): 50
Barnyardgrass plant response rating (barnyardgrass [1]; Test C, 125 g ai/ha): 0
Blackgrass plant response rating (blackgrass [2]; 500 g ai/ha): 20
Blackgrass plant response rating (blackgrass [2]; Test C, 125 g ai/ha): 0
Corn plant response rating (corn [3]; 500 g ai/ha): 10
Corn plant response rating (corn [3]; Test C, 125 g ai/ha): 0
Foxtail, Green plant response rating (green foxtail [4]; 500 g ai/ha): 100
Foxtail, Green plant response rating (green foxtail [4]; Test C, 125 g ai/ha): 80
Kochia plant response rating (kochia [5]; 500 g ai/ha): 70
Kochia plant response rating (kochia [5]; Test C, 125 g ai/ha): 50
Oat, Wild plant response rating (oat, wild [6]; 500 g ai/ha): 30
Oat, Wild plant response rating (oat, wild [6]; Test C, 125 g ai/ha): 20
Pigweed, Palmer plant response rating (pigweed, palmer [7]; 500 g ai/ha): 80
Pigweed, Palmer plant response rating (pigweed, palmer [7]; Test C, 125 g ai/ha): 20
Ragweed plant response rating (ragweed [8]; 500 g ai/ha): 20
Ragweed plant response rating (ragweed [8]; Test C, 125 g ai/ha): 0
Ryegrass, Italian plant response rating (ryegrass, Italian [9]; 500 g ai/ha): 80
Ryegrass, Italian plant response rating (ryegrass, Italian [9]; Test C, 125 g ai/ha): 60
Soybean plant response rating (soybean [10]; 500 g ai/ha): 20
Soybean plant response rating (soybean [10]; Test C, 125 g ai/ha): 0
Wheat plant response rating (wheat [11]; 500 g ai/ha): 20
Wheat plant response rating (wheat [11]; Test C, 125 g ai/ha): 0
Plant response rating, Barnyardgrass (barnyardgrass [12]; [25]): 10
Plant response rating, Barnyardgrass (barnyardgrass [12]; [23]): 50
Plant response rating, Blackgrass (blackgrass [13]; [25]): 0
Plant response rating, Blackgrass (blackgrass [13]; [23]): 80
Plant response rating, Corn (corn [14]; [25]): 0
Plant response rating, Corn (corn [14]; [23]): 70
Plant response rating, Foxtail, Green (green foxtail [15]; [25]): 10
Plant response rating, Foxtail, Green (green foxtail [15]; [23]): 50
Plant response rating, Kochia (kochia [16]; [25]): 50
Plant response rating, Kochia (kochia [16]; [23]): 60
Plant response rating, Oat, Wild (oat, wild [17]; [25]): 0
Plant response rating, Oat, Wild (oat, wild [17]; [23]): 40
Plant response rating, Pigweed, Palmer (pigweed, palmer [18]; [25]): 30
Plant response rating, Pigweed, Palmer (pigweed, palmer [18]; [23]): 40
Plant response rating, Ragweed (ragweed [19]; [25]): 0
Plant response rating, Ragweed (ragweed [19]; [23]): 50
Plant response rating, Ryegrass, Italian (ryegrass, Italian [20]; [25]): 10
Plant response rating, Ryegrass, Italian (ryegrass, Italian [20]; [23]): 80
Plant response rating, Soybean (soybean [21]; [25]): 70
Plant response rating, Soybean (soybean [21]; [23]): 100
Plant response rating, Wheat (wheat [22]; [25]): 10
Plant response rating, Wheat (wheat [22]; [23]): 30
Plant response rating, Galium (galium; [25]): 60
Plant response rating, Galium (galium; [23]): 90
Plant response rating, Horseweed (horseweed; [25]): 30
Plant response rating, Horseweed (horseweed; [23]): 30
